In publication PMC4382465 (The Journal of antibiotics, 2014) one finds MIC data, which are given here for two molecules.

One may read the MIC as the smallest concentration in the dilution series that meets the test's criterion for growth inhibition.

Assay [1] has as its system M. tuberculosis H37Rv INHr. The experiment in a line: MIC, broth dilution. The format is cell-based. The note with it: Mycobacterium tuberculosis.
Assay [2] has as its system M. tuberculosis H37Rv RFPr. The assay is described as follows: MIC, broth dilution. The format is cell-based. Conditions: Mycobacterium tuberculosis. A general note: Broth dilution looks for growth in wells or tubes with falling amounts of substance.

Values after ≈ are worked out from the molar mass of the structure shown.

With `COC1C(C(OC2OC(C(=O)NC3CCCCNC3=O)=CC(O)C2O)C(N)=O)OC(n2ccc(=O)[nH]c2=O)C1OC` (stereo not drawn) [UT-01320 (3), 6-{Carbamoyl-[5-(2,4-dioxo-3,4-dihydro-2H-pyrimidin-1-yl)-3,4-dimethoxy-tetrahydro-furan-2-yl]-methoxy}-4,5-dihydroxy-5,6-dihydro-4H-pyran-2-carboxylic acid (2-oxo-azepan-3-yl)-amide], the MIC was 2.5 µg/mL (≈ 4.28 µM) in assay [1] and 2.45 µg/mL (≈ 4.2 µM) in assay [2]. With `CO[C@H]1/C=C/O[C@@]2(C)Oc3c(C)c(O)c4c(O)c(c(/C=N/N5CCN(C)CC5)c(O)c4c3C2=O)NC(=O)/C(C)=C\C=C\[C@H](C)[C@H](O)[C@@H](C)[C@@H](O)[C@@H](C)[C@H](OC(C)=O)[C@@H]1C` [Rifampicin (RFP), Rifampicin], in assay [2], the MIC was greater than 4 µg/mL.
